Reference: the NIST ThermoML archive (doi:10.1016/j.jct.2012.03.005)
Numbers after ± are expanded uncertainties.

Assays:
[1] = 101.33 kPa, Liquid, Vibrating tube method
[2] = activity coefficient (dimensionless); of the first substance listed, at infinite dilution; xn = mol fraction of the nth substance listed; settings: 101 kPa, Liquid, Chromatography, x1 = 0

| Structure (SMILES) | mass density ([1]; 298.15 K) | mass density ([1]; 308.15 K) | mass density ([1]; 318.15 K) | mass density ([1]; 328.15 K) | mass density ([1]; 338.15 K) | mass density ([1]; 348.15 K) | mass density ([1]; 358.15 K) | activity coefficient ([2]; 308.15 K) | activity coefficient ([2]; 318.15 K) | activity coefficient ([2]; 328.15 K) | activity coefficient ([2]; 338.15 K) | activity coefficient ([2]; 348.15 K) | activity coefficient ([2]; 358.15 K) |
| --- | --- | --- | --- | --- | --- | --- | --- | --- | --- | --- | --- | --- | --- |
| CCn1cc[n+](C)c1.CS(=O)(=O)[O-] [1-ethyl-3-methylimidazolium methanesulfonate] | 1239.96 ± 0.43 kg/m3 | 1233.22 ± 0.42 kg/m3 | 1226.51 ± 0.42 kg/m3 | 1219.84 ± 0.41 kg/m3 | 1213.2 ± 0.41 kg/m3 | 1206.63 ± 0.4 kg/m3 | 1200.08 ± 0.4 kg/m3 |  |  |  |  |  |  |
| Cc1ccccc1 [toluene] + CCn1cc[n+](C)c1.CS(=O)(=O)[O-] |  |  |  |  |  |  |  | 9.13 ± 0.62 | 9.03 ± 0.62 | 8.88 ± 0.61 | 8.77 ± 0.6 | 8.65 ± 0.59 | 8.53 ± 0.58 |

Further lines, results first:

| mass density ([1]; 298.15 K) | mass density ([1]; 308.15 K) | mass density ([1]; 318.15 K) | mass density ([1]; 328.15 K) | mass density ([1]; 338.15 K) | mass density ([1]; 348.15 K) | mass density ([1]; 358.15 K) | activity coefficient ([2]; 308.15 K) | activity coefficient ([2]; 318.15 K) | activity coefficient ([2]; 328.15 K) | activity coefficient ([2]; 338.15 K) | activity coefficient ([2]; 348.15 K) | activity coefficient ([2]; 358.15 K) | Structure (SMILES) |
| --- | --- | --- | --- | --- | --- | --- | --- | --- | --- | --- | --- | --- | --- |
|  |  |  |  |  |  |  | 5.42 ± 0.37 | 5.3 ± 0.36 | 5.2 ± 0.4 | 5.1 ± 0.35 | 5 ± 0.34 | 4.91 ± 0.33 | C1CCOC1 [tetrahydrofuran] + CCn1cc[n+](C)c1.CS(=O)(=O)[O-] |
|  |  |  |  |  |  |  | 1.87 ± 0.13 | 1.92 ± 0.13 | 1.96 ± 0.13 | 2 ± 0.14 | 2.05 ± 0.14 | 2.09 ± 0.14 | c1ccsc1 [thiophene] + CCn1cc[n+](C)c1.CS(=O)(=O)[O-] |
|  |  |  |  |  |  |  |  | 0.071 ± 0.03 | 0.075 ± 0.03 | 0.079 ± 0.03 | 0.083 ± 0.03 | 0.088 ± 0.03 | O [water] + CCn1cc[n+](C)c1.CS(=O)(=O)[O-] |
